Measured values: ChEMBL document CHEMBL1132139, “2-Naphthylcarbapenems: broad spectrum antibiotics with enhanced potency against MRSA” (1999)
In brackets after ≈: the same amount, converted by molar mass.

Columns and labels:
[1] = Compound was evaluated for the antibacterial activity against methicillin-resistant coagulase-negative staphylococci (MRCNS)as fold improvement in activity with respect to imipenem.; type: functional, Staphylococcus […]
Enterobacter [2] = assay: Compound was evaluated for the antibacterial activity against Enterobacter as fold improvement in activity with respect to imipenem.; type: functional
Escherichia coli [3] = assay: Compound was evaluated for the antibacterial activity against Escherichia coli as fold improvement in activity with respect to imipenem.; type: functional
Staphylococcus aureus [4] = assay: Compound was evaluated for the antibacterial activity against methicillin-resistant Staphylococcus aureus (MRSA)as fold improvement in activity with respect to imipenem.; type: functional
[5] = biological target: T1, Dipeptidase 1 (Sus scrofa) (UniProt P22412); assay: Dehydropeptidase-1 susceptibility.
T1 sequence (whole entry): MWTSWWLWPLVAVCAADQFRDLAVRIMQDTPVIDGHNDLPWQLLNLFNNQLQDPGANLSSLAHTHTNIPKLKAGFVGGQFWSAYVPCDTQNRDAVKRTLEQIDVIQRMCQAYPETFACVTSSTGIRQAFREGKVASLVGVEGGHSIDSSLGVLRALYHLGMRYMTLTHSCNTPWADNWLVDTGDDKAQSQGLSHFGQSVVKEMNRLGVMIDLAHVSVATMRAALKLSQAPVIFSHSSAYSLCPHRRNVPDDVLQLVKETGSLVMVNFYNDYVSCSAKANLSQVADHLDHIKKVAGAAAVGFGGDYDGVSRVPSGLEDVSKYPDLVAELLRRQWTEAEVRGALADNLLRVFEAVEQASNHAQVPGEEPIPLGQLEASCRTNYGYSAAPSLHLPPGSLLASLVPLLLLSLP

Proteus [6] = assay: Compound was evaluated for the antibacterial activity against Proteus as fold improvement in activity with respect to imipenem.; type: functional, Proteus sp.
Klebsiella [7] = assay: Compound was evaluated for the antibacterial activity against Klebsiella.8 as fold improvement in activity with respect to imipenem.; type: functional
Enterococcus [8] = assay: Compound was evaluated for the antibacterial activity against Enterococcus as fold improvement in activity with respect to imipenem.; type: functional
Staphylococcus aureus [9] = assay: Compound was evaluated for the antibacterial activity against methicillin-sensitive Staphylococcus aureus (MSSA)as fold improvement in activity with respect to imipenem.; type: functional
Serratia [10] = assay: Compound was evaluated for the antibacterial activity against Serratia as fold improvement in activity with respect to imipenem.; type: functional
Pseudomonas aeruginosa [11] = assay: Compound was evaluated for the antibacterial activity against Pseudomonas aeruginosa as fold improvement in activity with respect to imipenem.; type: functional
Serratia [12] = assay: Compound was evaluated for the antibacterial activity against Serratia.; type: functional
Enterobacter [13] = assay: Compound was evaluated for the antibacterial activity against Enterobacter.; type: functional
Klebsiella [14] = assay: Compound was evaluated for the antibacterial activity against Klebsiella.8.; type: functional
Staphylococcus aureus [15] = assay: Compound was evaluated for the antibacterial activity against methicillin-resistant coagulase-negative staphylococci (MRCNS).; type: functional
Pseudomonas aeruginosa [16] = assay: Compound was evaluated for the antibacterial activity against Pseudomonas aeruginosa.; type: functional
Staphylococcus aureus [17] = assay: Compound was evaluated for the anti-MRSA activity as MIC50; type: functional
Enterococcus [18] = assay: Compound was evaluated for the antibacterial activity against Enterococcus.; type: functional
Escherichia coli [19] = assay: Compound was evaluated for the antibacterial activity against Escherichia coli.; type: functional
Staphylococcus aureus [20] = assay: Compound was evaluated for the antibacterial activity against methicillin-sensitive Staphylococcus aureus (MSSA).; type: functional
[21] = test system: coagulase-negative Staphylococcus; assay: Compound was evaluated for the anti-MRCNS activity as MIC50.
Staphylococcus aureus [22] = assay: Compound was evaluated for the antibacterial activity against methicillin-resistant Staphylococcus aureus (MRSA).; type: functional
Staphylococcus aureus [23] = assay: Compound was evaluated for the anti-MRSA activity as MIC90.; type: functional
Proteus [24] = assay: Compound was evaluated for the antibacterial activity against Proteus; type: functional, Proteus sp.
Klebsiella [25] = assay: Compound was evaluated for the antibacterial activity against Klebsiella as fold improvement in activity with respect to imipenem.; type: functional

Row | SMILES | Activity [1] | Activity (Enterobacter [2]) | Activity (Escherichia coli [3]) | Activity (Staphylococcus aureus [4]) | Activity [5] | Activity (Proteus [6]) | Activity (Klebsiella [7]) | Activity (Enterococcus [8]) | Activity (Staphylococcus aureus [9]) | Activity (Serratia [10]) | Activity (Pseudomonas aeruginosa [11]) | MIC50 (Staphylococcus aureus [17]) [µg/mL] | MIC50 [21] [µg/mL] | MIC90 (Staphylococcus aureus [23]) [µg/mL] | further results
1 | C[C@@H](O)[C@H]1C(=O)N2C(C(=O)[O-])=C(c3ccc4cc(C[n+]5cccc(N)c5)ccc4c3)C[C@H]12 | 44 | 0.64 | 1.3 | 13 | 0.15 | 6.5 | 0.43 | 2.3 | 0.53 | 3 | 0.02 | – | – | – | –
2 | C[C@@H](O)[C@H]1C(=O)N2C(C(=O)[O-])=C(c3ccc4cccc(C[n+]5ccccc5N)c4c3)C[C@H]12 | 8 | 0.01 | 0.04 | 4.9 | 0 | 0.22 | 0.03 | 2.1 | 0.1 | 0.05 | 0.02 | – | – | – | –
3 | CC(O)C1C(=O)N2C(C(=O)O)=C(c3ccc4ccccc4c3)CC12 (configuration not stated) | 2.7 | 0.1 | 0.31 | 3.3 | 0.09 | 2.8 | 0.08 | 2.6 | 0.5 | 0.09 | 0.01 | – | – | – | –
4 | C[C@@H](O)[C@H]1C(=O)N2C(C(=O)[O-])=C(c3ccc4ccc(C[n+]5ccc(N)cc5)cc4c3)C[C@H]12 | 55 | 0.17 | 0.33 | 16 | 0.07 | 3.2 | 0.25 | 4.9 | 0.53 | 0.97 | 0.01 | – | – | – | –
5 | C[C@@H](O)[C@H]1C(=O)N2C(C(=O)[O-])=C(c3ccc4c(C[n+]5ccc(N)cc5)cccc4c3)C[C@H]12 | 77 | 0.18 | 0.4 | 12 | 0.03 | 15 | 0.21 | 2.7 | 0.42 | 0.69 | 0.02 | – | – | – | –
6 | C[C@@H](O)[C@H]1C(=O)N2C(C(=O)O)=C(SCCNC=N)C[C@H]12 [IMIPENEM ANHYDROUS] | – | – | – | – | 1 | – | – | – | – | – | – | 32 (≈ 107 µM) | 128 (≈ 428 µM) | 64 (≈ 214 µM) | MIC (Serratia [12]): 0.29 µg/mL (≈ 0.969 µM); MIC (Enterobacter [13]): 0.18 µg/mL (≈ 0.601 µM); MIC (Klebsiella [14]): 0.29 µg/mL (≈ 0.969 µM); MIC (Staphylococcus aureus [15]): 70 µg/mL (≈ 234 µM); MIC (Pseudomonas aeruginosa [16]): 0.36 µg/mL (≈ 1.2 µM); MIC (Enterococcus [18]): 1.8 µg/mL (≈ 6.01 µM); MIC (Escherichia coli [19]): 0.19 µg/mL (≈ 0.635 µM); MIC (Staphylococcus aureus [20]): 0.01 µg/mL (≈ 0.0334 µM); MIC (Staphylococcus aureus [22]): 33 µg/mL (≈ 110 µM); MIC (Proteus [24]): 0.69 µg/mL (≈ 2.3 µM)
7 | C[C@@H](O)[C@H]1C(=O)N2C(C(=O)[O-])=C(c3ccc(C[n+]4ccccc4N)cc3)C[C@H]12 | 1.6 | 3 | 1.7 | 2 | 0.11 | 4.2 | 1.1 | 12.9 | 0.5 | 4.4 | 0.02 | – | – | – | –
8 | C[C@@H](O)[C@H]1C(=O)N2C(C(=O)[O-])=C(c3ccc4cc(C[n+]5ccc(N)cc5)ccc4c3)C[C@H]12 | 77 | 0.92 | 1.4 | 18 | 0.26 | 10 | – | 2.7 | 0.45 | 1.8 | 0.02 | 4 (≈ 9.31 µM) | 8 (≈ 18.6 µM) | 8 (≈ 18.6 µM) | Activity (Klebsiella [25]): 0.4
9 | C[C@@H](O)[C@H]1C(=O)N2C(C(=O)[O-])=C(c3ccc4cccc(C[n+]5ccc(N)cc5)c4c3)C[C@H]12 | 40 | 0.03 | 0.09 | 20 | 0.01 | 0.48 | 0.04 | 2.4 | 0.15 | 0.07 | 0.01 | 8 (≈ 18.6 µM) | 16 (≈ 37.3 µM) | 8 (≈ 18.6 µM) | –
10 | C[C@H](O)[C@H]1C(=O)N2C(C(=O)[O-])=C(c3cc(C[n+]4ccccc4N)c4ccccc4c3)C[C@H]12 | 1.9 | 0.01 | 0.04 | 1.4 | 0.01 | 0.1 | 0.02 | 2.2 | 0.13 | 0.02 | 0.01 | – | – | – | –
11 | C[C@H](O)[C@H]1C(=O)N2C(C(=O)[O-])=C(c3cc(C[n+]4ccc(N)cc4)c4ccccc4c3)C[C@H]12 | 24 | 0.02 | 0.06 | 11 | 0.01 | 0.19 | 0.02 | 2.2 | 0.42 | 0.02 | 0.01 | – | – | – | –
12 | C[C@@H](O)[C@H]1C(=O)N2C(C(=O)[O-])=C(c3ccc4cc(C[n+]5ccccc5N)ccc4c3)C[C@H]12 | 323 | 0.85 | 1.4 | 28 | 0.2 | 5 | 0.38 | 4.4 | 0.39 | 2 | 0.02 | 2 (≈ 4.66 µM) | 8 (≈ 18.6 µM) | 4 (≈ 9.31 µM) | –
13 | C[C@H](O)[C@H]1C(=O)N2C(C(=O)[O-])=C(c3cccc(-c4ccc(C[n+]5ccccc5N)cc4)c3)C[C@H]12 | 232 | 0.04 | 0.11 | 154 | 0.04 | 0.38 | 0.04 | 6.2 | 0.43 | 0.11 | 0.01 | 1 (≈ 2.2 µM) | 2 (≈ 4.39 µM) | 2 (≈ 4.39 µM) | –
14 | C[C@@H](O)[C@H]1C(=O)N2C(C(=O)[O-])=C(c3cc(C[n+]4cccc(N)c4)c4ccccc4c3)C[C@H]12 | 12 | 0.02 | 0.09 | 6.9 | 0.01 | 0.13 | 0.01 | 3.2 | 0.39 | 0.03 | 0.01 | – | – | – | –
15 | CN[C@H](CC(C)C)C(=O)N[C@H]1C(=O)N[C@@H](CC(N)=O)C(=O)N[C@H]2C(=O)N[C@H]3C(=O)N[C@H](C(=O)N[C@H](C(=O)O)c4cc(O)cc(O)c4-c4cc3ccc4O)[C@H](O)c3ccc(c(Cl)c3)Oc3cc2cc(c3O[C@@H]2O[C@H](CO)[C@@H](O)[C@H](O)[C@H]2O[C@H]2C[C@](C)(N)[C@H](O)[C@H](C)O2)Oc2ccc(cc2Cl)[C@H]1O [VANCOMYCIN] | – | – | – | – | – | – | – | – | – | – | – | 2 (≈ 1.38 µM) | 4 (≈ 2.76 µM) | 2 (≈ 1.38 µM) | –
